Measurements published in patent US4341780A, “Substituted pyrido [1,2-a] pyrimidines useful as anti-allergic, anti-ulcer and anti-diabetic agents” (Farmitalia Carlo Erba S.p.A., priority 1979, dated 1982).

system: passive cutaneous anaphylaxis (PCA); assay: IgE-mediated passive cutaneous anaphylaxis (PCA) test in rats, oral administration; assay type: in vivo; details: rat PCA, p.o., pretreatment time 15'; KB = dose reducing to one half the activity of the sensitizing serum; lower = more active
Source text: The compounds of the invention have anti-allergic activity, and are therefore useful in the prevention and treatment of all the affections of allergic origin, e.g. bronchial asthma, allergic rhinitis, hay fever, urticaria and dermatosis. The anti-allergic activity of the compounds of the invention is shown, e.g., by the first that they are active in the passive cutaneous anaphylaxis (PCA) test in rats, according to Goose J. and Blair A. M. J. N. (Immunology, 16, 749, 1969).
The activity data are expressed in terms of KB defined as the dose of active compound capable of reducing to one half the activity of the serum used for the sensitization:
B=dose of antagonist compound expressed in mg/kg;
DR=dose ratio: antilogarithm of the distance between the Log dose effect functions of the scrum with and without antagonist (J. H. Gaddum et al, Exp. Physiol., 1955, 40, 49).
The KB is adopted here because this value is independent both of the dose of the drug and the reagin concentration used for the sensitization.
The lower the KB value, the higher the anti-allergic activity.
The anti-allergic activity was determined e.g. by the inhibition of the IgE-mediated PCA according to Goose J. and Blair A. M. J. N. (Immunology, 16, 749, 1969) using homocytotropic antibodies raised in rats following the method of Mota I., Immunology, 7, 681, (1964).
The tested compounds were administered per os (p.o) 15 minutes before the administration of the antigen: at least 6 rats were used for each dose.

Row | Structure (SMILES) | Anti-allergic activity KB
1 | O=C(O)c1cc(=O)c2c(OCC(O)COc3cccc4oc(C(=O)O)cc(=O)c34)cccc2o1 [Disodium Cromoglycate, reference compound] | > 200 mg/kg
2 | CCCc1c(/C=C/c2ccccc2C)nc2ccc(C(=O)O)cn2c1=O [FCE 20099, 2-trans-[2-(2-methyl-phenyl)-ethenyl]-3-propyl-4-oxo-4H-pyrido[1,2-a]pyrimidine-7-carboxylic acid] | 2.02 mg/kg
3 | CCCc1c(/C=C/c2cccc(OC)c2)nc2ccc(C(=O)O)cn2c1=O [FCE 20183, 2-trans-[2-(3-methoxy-phenyl)-ethenyl]-3-propyl-4-oxo-4H-pyrido[1,2-a]pyrimidine-7-carboxylic acid] | 1.48 mg/kg
4 | CCCc1c(/C=C/c2ccccc2)nc2n(c1=O)C1CC1(C(=O)O)C=C2 (stereo not drawn) [FCE 20188, 2-trans-(2-phenyl-ethenyl)-3-propyl-6,7-methylen-4-oxo-4H-pyrido[1,2-a]pyrimidine-7-carboxylic acid] | 2.34 mg/kg
5 | CCCc1c(/C=C/c2cccc(OC)c2OC)nc2n(c1=O)C1CC1(C(=O)O)C=C2 (stereo not drawn) [FCE 20461, 2-trans-[2-(2,3-dimethoxy-phenyl)-ethenyl]-3-propyl-6,7-methylen-4-oxo-4H-pyrido[1,2-a]pyrimidine-7-carboxylic acid] | 1.22 mg/kg
6 | CCc1c(/C=C/c2cccc(OC)c2)nc2n(c1=O)C1CC1(C(=O)O)C=C2 (stereo not drawn) [FCE 20509, 2-trans-[2-(3-methoxy-phenyl)-ethenyl]-3-ethyl-6,7-methylen-4-oxo-4H-pyrido[1,2-a]pyrimidine-7-carboxylic acid] | 0.61 mg/kg
7 | CCCc1c(/C=C/c2ccccc2)nc2ccc(C(=O)O)cn2c1=O [K 13808, 2-trans-(2-phenyl-ethenyl)-3-propyl-4-oxo-4H-pyrido[1,2-a]pyrimidine-7-carboxylic acid] | 2.16 mg/kg
8 | CCc1c(/C=C/c2ccccc2)nc2n(c1=O)C1CC1(C(=O)O)C=C2 (stereo not drawn) [K 13830, 2-trans-(2-phenyl-ethenyl)-3-ethyl-6,7-methylen-4-oxo-4H-pyrido[1,2-a]pyrimidine-7-carboxylic acid] | 1.15 mg/kg

system: not listed separately; assay: approximate acute toxicity (LD50) in the mouse, per os; details: in vivo, po, single administration of increasing doses, measured on the seventh day
Experimental: For example, the approximate acute toxicity (LD50) of the compound 2-trans-(2-phenyl-ethenyl)-3-propyl-4-oxo-4H-pyrido(1,2-a)pyrimidine-7-carboxylic acid in the mouse, determined with single adminstration of increasing doses and measured on the seventh day of treatment is per os higher than 800 mg/kg. Analogous toxicity data have been found for the other compounds of the invention.

Row | Structure (SMILES) | LD50 at 168 h
9 | CCCc1c(/C=C/c2ccccc2)nc2ccc(C(=O)O)cn2c1=O [K 13808, 2-trans-(2-phenyl-ethenyl)-3-propyl-4-oxo-4H-pyrido[1,2-a]pyrimidine-7-carboxylic acid] | > 800 mg/kg
